How the values were obtained:
Type in all cases: physicochemical
[1] = Solid heat stability test (heating in DSC, then XRPD)
Procedure: Experimental Example 2: Solid Heat Stability Test
In a differential scanning calorimeter, samples of Crystalline Form I of Compound A monohydrate were heated at a rate of 10° C./min to 150° C. and 210° C., respectively, and then analyzed by X-ray powder diffraction.

[2] = Solid hygroscopicity test; conditions: 25° C.±1° C., 80%±2% relative humidity, 24 hours
Procedure: Experimental Example 3: Solid Hygroscopicity Test
100 mg of Crystalline Form II of Compound A anhydrate and 100 mg of Crystalline Form I of Compound A monohydrate were precisely weighed. The two samples were placed at 25° C.±1° C. and 80%±2% relative humidity for 24 hours. The weight of the samples was then measured and the percentage weight increase was calculated.

[3] = Solid stability test (XRPD after storage)
Procedure: Experimental Example 1: Solid Stability Test
Two samples of Crystalline Form II of Compound A anhydrate were placed in environments of 40° C./75% RH and 60° C./90% RH for 7 days.

| SMILES | crystalline form by XRPD after heat treatment ([1]; heated at 10° C./min to 150° C.) | crystalline form by XRPD after heat treatment ([1]; heated at 10° C./min to 210° C.) | weight increase percentage (hygroscopicity) [2] [%] | change in the crystalline form by XRPD analysis ([3]; 40° C./75% RH for 7 days) | change in the crystalline form by XRPD analysis ([3]; 60° C./90% RH for 7 days) |
| --- | --- | --- | --- | --- | --- |
| Cn1c(C(=O)C2CC(F)(F)C2)cc2ccc(-c3nccc(Nc4ccc(-c5cn[nH]c5)cc4)n3)cc21 [Crystalline Form I of Compound A monohydrate] | remained unchanged | converted to crystalline form II of Compound A anhydrous | 3.62 | – | – |
| Cn1c(C(=O)C2CC(F)(F)C2)cc2ccc(-c3nccc(Nc4ccc(-c5cn[nH]c5)cc4)n3)cc21 [Crystalline Form II of Compound A anhydrate] | – | – | 0.69 | no change in the crystalline form | no change in the crystalline form |

Reference: US20240376086A1, “SOLID FORM OF RHO-ASSOCIATED PROTEIN KINASE INHIBITOR OR SOLVATE THEREOF, PREPARATION METHOD AND USE THEREOF” (BEIJING TIDE PHARMACEUTICAL CO., LTD., priority 2021, published 2024)
